system: test plant species; assay: Post-emergent herbicidal activity test (greenhouse, foliar spray, visual growth reduction); type: in vivo; details: post-emergence, 336 h, ECHCG: barnyardgrass (Echinochloa crus-galli), 140 g ai/ha, 14 days after application, read-out: Visual Growth Reduction (%) 14 Days After Application, ECHCG
Experimental: Post-emergent Test: Seeds or nutlets of the desired test plant species were planted in Sun Gro Metro-Mix® 360 planting mixture, which typically has a pH of 6.0 to 6.8 and an organic matter content of about 30 percent, in plastic pots with a surface area of 64 square centimeters. In some aspects, to ensure good germination and healthy plants, a fungicide treatment and/or other chemical or physical treatment was applied. The plants were grown for 7-21 d in a greenhouse with an approximate 15 h photoperiod which was maintained at 23-29° C. during the day and 22-28° C. during the night. Nutrients and water were added on a regular basis and supplemental lighting was provided with overhead metal halide 1000-Watt lamps as necessary. Plants were used for testing when they reached the first or second true leaf stage. A weighed amount, determined by the highest rate to be tested, of each test compound was placed in a 25 mL glass vial and was dissolved in 4 mL of a 97:3 v/v mixture of acetone and DMSO to obtain concentrated stock solutions. […] The concentrated stock solutions obtained were diluted with 20 mL of an aqueous mixture containing acetone, water, isopropyl alcohol, DMSO, […] crop oil concentrate, and X-77 surfactant in a 48.5:39:10:1.5:1.0:0.02 v/v ratio to obtain spray solutions containing the application rate. Compound requirements are based upon a 12 mL application volume at a rate of 187 liters per hectare (L/ha). Formulated compounds were applied to the plant material with an overhead Mandel track sprayer equipped with […] nozzles calibrated to deliver 187 L/ha over an application area of 0.64 square meters at a spray height of 18 inches (43 cm) above the average plant canopy height. Control plants were sprayed in the same manner with the solvent blank. The treated plants and control plants were placed in a greenhouse as described above and watered by subirrigation to prevent wash-off of the test compounds. After 14 d, the condition of the test plants as compared with that of the nontreated and control plants was determined visually and scored on a scale of 0 to 100 percent where 0 corresponds to no injury and 100 corresponds to complete control. In the reporting of the results, Table A: Percent Growth Reduction Conversion Table was used.

First: COC(=O)c1nc(-c2ccc(C(F)F)cc2OC)c(F)cc1Cl [F275, Methyl 3-chloro-6-(4-(difluoromethyl)-2-methoxyphenyl)-5-fluoropicolinate]
Second: COc1cc(C(F)(F)F)cc(Cl)c1-c1ccc(Cl)c(C(=O)O)n1 [F223, 3-Chloro-6-(2-chloro-6-methoxy-4-(trifluoromethyl)phenyl) picolinic acid]
The pest or weed control at 140 g/ha of the first is lower: 0 to 29% for the first, 75 to 84% for the second.

same assay, conditions: post-emergence, 336 h, IPOHE: ivy-leaf morning glory (Ipomoea hederacea), 140 g ai/ha, 14 days after application, read-out: Visual Growth Reduction (%) 14 Days After Application, IPOHE

`COC(=O)c1nc(-c2ccc(C(F)F)cc2OC)c(F)cc1Cl` [F275, Methyl 3-chloro-6-(4-(difluoromethyl)-2-methoxyphenyl)-5-fluoropicolinate] and `COc1cc(C(F)(F)F)cc(Cl)c1-c1ccc(Cl)c(C(=O)O)n1` [F223, 3-Chloro-6-(2-chloro-6-methoxy-4-(trifluoromethyl)phenyl) picolinic acid] fall in the same range of pest or weed control at 140 g/ha: 95 to 100% for the first, 95 to 100% for the second.

same assay, conditions: post-emergence, 336 h, KCHSC: kochia (Bassia scoparia), 140 g ai/ha, 14 days after application, read-out: Visual Growth Reduction (%) 14 Days After Application, KCHSC

First: COC(=O)c1nc(-c2ccc(C(F)F)cc2OC)c(F)cc1Cl [F275, Methyl 3-chloro-6-(4-(difluoromethyl)-2-methoxyphenyl)-5-fluoropicolinate]
Second: COc1cc(C(F)(F)F)cc(Cl)c1-c1ccc(Cl)c(C(=O)O)n1 [F223, 3-Chloro-6-(2-chloro-6-methoxy-4-(trifluoromethyl)phenyl) picolinic acid]
The pest or weed control at 140 g/ha of the first is lower: 85 to 94% for the first, 95 to 100% for the second.

same assay, conditions: post-emergence, 336 h, ORYSA: rice (Oryza sativa), 140 g ai/ha, 14 days after application, read-out: Visual Growth Reduction (%) 14 Days After Application, ORYSA

First: COC(=O)c1nc(-c2ccc(C(F)F)cc2OC)c(F)cc1Cl [F275, Methyl 3-chloro-6-(4-(difluoromethyl)-2-methoxyphenyl)-5-fluoropicolinate]
Second: COc1cc(C(F)(F)F)cc(Cl)c1-c1ccc(Cl)c(C(=O)O)n1 [F223, 3-Chloro-6-(2-chloro-6-methoxy-4-(trifluoromethyl)phenyl) picolinic acid]
The pest or weed control at 140 g/ha of the first is lower: 0 to 29% for the first, 30 to 44% for the second.

same assay, conditions: post-emergence, 336 h, SETFA: giant foxtail (Setaria faberi), 140 g ai/ha, 14 days after application, read-out: Visual Growth Reduction (%) 14 Days After Application, SETFA

First: COC(=O)c1nc(-c2ccc(C(F)F)cc2OC)c(F)cc1Cl [F275, Methyl 3-chloro-6-(4-(difluoromethyl)-2-methoxyphenyl)-5-fluoropicolinate]
Second: COc1cc(C(F)(F)F)cc(Cl)c1-c1ccc(Cl)c(C(=O)O)n1 [F223, 3-Chloro-6-(2-chloro-6-methoxy-4-(trifluoromethyl)phenyl) picolinic acid]
The pest or weed control at 140 g/ha of the first is lower: 45 to 59% for the first, 85 to 94% for the second.

same assay, conditions: post-emergence, 336 h, SORVU: grain sorghum (Sorghum vulgare), 140 g ai/ha, 14 days after application, read-out: Visual Growth Reduction (%) 14 Days After Application, SORVU

First: COC(=O)c1nc(-c2ccc(C(F)F)cc2OC)c(F)cc1Cl [F275, Methyl 3-chloro-6-(4-(difluoromethyl)-2-methoxyphenyl)-5-fluoropicolinate]
Second: COc1cc(C(F)(F)F)cc(Cl)c1-c1ccc(Cl)c(C(=O)O)n1 [F223, 3-Chloro-6-(2-chloro-6-methoxy-4-(trifluoromethyl)phenyl) picolinic acid]
The pest or weed control at 140 g/ha of the first is lower: 45 to 59% for the first, 85 to 94% for the second.

same assay, conditions: post-emergence, 336 h, STEME: common chickweed (Stellaria media), 140 g ai/ha, 14 days after application, read-out: Visual Growth Reduction (%) 14 Days After Application, STEME

First: COC(=O)c1nc(-c2ccc(C(F)F)cc2OC)c(F)cc1Cl [F275, Methyl 3-chloro-6-(4-(difluoromethyl)-2-methoxyphenyl)-5-fluoropicolinate]
Second: COc1cc(C(F)(F)F)cc(Cl)c1-c1ccc(Cl)c(C(=O)O)n1 [F223, 3-Chloro-6-(2-chloro-6-methoxy-4-(trifluoromethyl)phenyl) picolinic acid]
The pest or weed control at 140 g/ha of the first is lower: 0 to 29% for the first, 60 to 74% for the second.

same assay, conditions: post-emergence, 336 h, TRZAS: wheat, spring (Triticum aestivum), 140 g ai/ha, 14 days after application, read-out: Visual Growth Reduction (%) 14 Days After Application, TRZAS

First: COC(=O)c1nc(-c2ccc(C(F)F)cc2OC)c(F)cc1Cl [F275, Methyl 3-chloro-6-(4-(difluoromethyl)-2-methoxyphenyl)-5-fluoropicolinate]
Second: COc1cc(C(F)(F)F)cc(Cl)c1-c1ccc(Cl)c(C(=O)O)n1 [F223, 3-Chloro-6-(2-chloro-6-methoxy-4-(trifluoromethyl)phenyl) picolinic acid]
The pest or weed control at 140 g/ha of the first is lower: 0 to 29% for the first, 75 to 84% for the second.

same assay, conditions: post-emergence, 336 h, blackgrass (Alopecurus myosuroides), 14 Days After Application, 140 g ai/ha, read-out: Visual Growth Reduction (%) ALOMY

`COC(=O)c1nc(-c2ccc(C(F)F)cc2OC)c(F)cc1Cl` [F275, Methyl 3-chloro-6-(4-(difluoromethyl)-2-methoxyphenyl)-5-fluoropicolinate] and `COc1cc(C(F)(F)F)cc(Cl)c1-c1ccc(Cl)c(C(=O)O)n1` [F223, 3-Chloro-6-(2-chloro-6-methoxy-4-(trifluoromethyl)phenyl) picolinic acid] fall in the same range of pest or weed control at 140 g/ha: 0 to 29% for the first, 0 to 29% for the second.

same assay, conditions: post-emergence, 336 h, canada thistle (Cirsium arvense), 14 Days After Application, 140 g ai/ha, read-out: Visual Growth Reduction (%) CIRAR

`COC(=O)c1nc(-c2ccc(C(F)F)cc2OC)c(F)cc1Cl` [F275, Methyl 3-chloro-6-(4-(difluoromethyl)-2-methoxyphenyl)-5-fluoropicolinate] and `COc1cc(C(F)(F)F)cc(Cl)c1-c1ccc(Cl)c(C(=O)O)n1` [F223, 3-Chloro-6-(2-chloro-6-methoxy-4-(trifluoromethyl)phenyl) picolinic acid] fall in the same range of pest or weed control at 140 g/ha: 95 to 100% for the first, 95 to 100% for the second.

same assay, conditions: post-emergence, 336 h, crabgrass (Digitaria sanguinalis), 14 Days After Application, 140 g ai/ha, read-out: Visual Growth Reduction (%) DIGSA

First: COC(=O)c1nc(-c2ccc(C(F)F)cc2OC)c(F)cc1Cl [F275, Methyl 3-chloro-6-(4-(difluoromethyl)-2-methoxyphenyl)-5-fluoropicolinate]
Second: COc1cc(C(F)(F)F)cc(Cl)c1-c1ccc(Cl)c(C(=O)O)n1 [F223, 3-Chloro-6-(2-chloro-6-methoxy-4-(trifluoromethyl)phenyl) picolinic acid]
The pest or weed control at 140 g/ha of the first is lower: 0 to 29% for the first, 60 to 74% for the second.

same assay, conditions: post-emergence, 336 h, lambsquarters (Chenopodium album), 14 Days After Application, 140 g ai/ha, read-out: Visual Growth Reduction (%) CHEAL

Compared with `COC(=O)c1nc(-c2ccc(C(F)F)cc2OC)c(F)cc1Cl` [F275, Methyl 3-chloro-6-(4-(difluoromethyl)-2-methoxyphenyl)-5-fluoropicolinate], `COc1cc(C(F)(F)F)cc(Cl)c1-c1ccc(Cl)c(C(=O)O)n1` [F223, 3-Chloro-6-(2-chloro-6-methoxy-4-(trifluoromethyl)phenyl) picolinic acid] is higher in pest or weed control at 140 g/ha: 85 to 94% for the first, 95 to 100% for the second.

same assay, conditions: post-emergence, 336 h, redroot pigweed (Amaranthus retroflexus), 14 Days After Application, 140 g ai/ha, read-out: Visual Growth Reduction (%) AMARE

First: COC(=O)c1nc(-c2ccc(C(F)F)cc2OC)c(F)cc1Cl [F275, Methyl 3-chloro-6-(4-(difluoromethyl)-2-methoxyphenyl)-5-fluoropicolinate]
Second: COc1cc(C(F)(F)F)cc(Cl)c1-c1ccc(Cl)c(C(=O)O)n1 [F223, 3-Chloro-6-(2-chloro-6-methoxy-4-(trifluoromethyl)phenyl) picolinic acid]
The pest or weed control at 140 g/ha of the first is lower: 60 to 74% for the first, 95 to 100% for the second.

same assay, conditions: post-emergence, 336 h, wild oat (Avena fatua), 14 Days After Application, 140 g ai/ha, read-out: Visual Growth Reduction (%) AVEFA

First: COC(=O)c1nc(-c2ccc(C(F)F)cc2OC)c(F)cc1Cl [F275, Methyl 3-chloro-6-(4-(difluoromethyl)-2-methoxyphenyl)-5-fluoropicolinate]
Second: COc1cc(C(F)(F)F)cc(Cl)c1-c1ccc(Cl)c(C(=O)O)n1 [F223, 3-Chloro-6-(2-chloro-6-methoxy-4-(trifluoromethyl)phenyl) picolinic acid]
The pest or weed control at 140 g/ha of the first is lower: 0 to 29% for the first, 60 to 74% for the second.

same assay, conditions: post-emergence, 336 h, yellow nutsedge (Cyperus esculentus), 14 Days After Application, 140 g ai/ha, read-out: Visual Growth Reduction (%) CYPES

First: COC(=O)c1nc(-c2ccc(C(F)F)cc2OC)c(F)cc1Cl [F275, Methyl 3-chloro-6-(4-(difluoromethyl)-2-methoxyphenyl)-5-fluoropicolinate]
Second: COc1cc(C(F)(F)F)cc(Cl)c1-c1ccc(Cl)c(C(=O)O)n1 [F223, 3-Chloro-6-(2-chloro-6-methoxy-4-(trifluoromethyl)phenyl) picolinic acid]
The pest or weed control at 140 g/ha of the first is lower: 0 to 29% for the first, 45 to 59% for the second.

Source: patent US20230017045A1, “PYRIDINE AND PYRIMIDINE CARBOXYLATE HERBICIDES AND METHODS OF USE THEREOF” (Dow AgroSciences LLC, priority 2017, published 2023)
